Laboratory results published in patent US20260374818A1, “CATIONIC PEPTIDES WITH BROAD SPECTRUM ACTIVITY” (priority 2023, published 2026).
≈ marks a conversion by molar mass, not a printed value. Where a SMILES comes first, the peptide text is derived from it. [ ]: non-standard residue; d: D form.

Assays:
MRSA USA300 biofilms = experiment: Biofilm inhibition by >95% pure peptides (crystal violet), MRSA; format: cell-based, methicillin resistant Staphylococcus aureus; settings: for minimum inhibitory concentration of peptide that inhibited at least 90% of biofilm growth (MBIC90): MRSA USA300 biofilms, >95% pure peptides, 10% TSB + 0.1% glucose; for IC50: MRSA, 24 hours
MRSA USA 300 = experiment: MIC (broth microdilution) of peptides, MRSA; format: cell-based, methicillin resistant Staphylococcus aureus; settings: MRSA USA300; mode of three biological replicates
Method: (§1) Minimal inhibitory concentration (MIC) against planktonic bacteria: The MIC of the synthetic peptides was determined in Mueller-Hinton broth (MHB) using the broth microdilution method described previously [Wiegand, I., Hilpert, K., & Hancock, R. E. (2008). Agar and broth dilution methods to determine the minimal inhibitory concentration (MIC) of antimicrobial substances. Nature Protocols, 3(2), 163-175]. Briefly, 10 μl of a 10× concentrated peptide solution was placed in the bottom of a well in a 96-well polypropylene round bottom plate (Corning Inc.). A bacterial suspension of ~5×10^5 CFU/ml was prepared from an overnight culture and 90 μl of this was added to each well. […] Bacteria tested included P. aeruginosa PAO1, MRSA USA300 LAC, Staphylococcus haemolyticus, Staphylococcus epidermidis, Klebsiella pneumoniae and Streptococcus salivarius.
(§2) Finally, the AB103-D derivatives that were the least aggregation prone and which produced the lowest toxic effects in vivo were evaluated for their direct antibacterial activity towards several pathogens of clinical relevance using a standard minimum inhibitory concentration (MIC) assay [Wiegand, I., Hilpert, K., & Hancock, R. E. (2008). Agar and broth dilution methods to determine the minimal inhibitory concentration (MIC) of antimicrobial substances. Nature Protocols, 3(2), 163-175]. Specifically, peptides AB110-D, AB111-D, AB114-D and AB115-D were tested against P. aeruginosa PAO1, MRSA USA 300, Staphylococcus haemolyticus, Staphylococcus epidermidis, Klebsiella pneumoniae and Streptococcus salivarius and compared against the antibacterial activity of DJK-5 and AB103-D (Table 7). Overall, the antibacterial potency of all of the AB103-D derivatives was stronger than that seen for DJK-5, particularly in the case of the Gram-negative pathogens P. aeruginosa and K. pneumoniae. […]

P. aeruginosa PAO1 [1] = experiment: MIC (broth microdilution) of peptides, P. aeruginosa; format: cell-based, Pseudomonas aeruginosa; settings: mode of three biological replicates
Method: as §1, §2

P. aeruginosa PAO1 [2] = experiment: Biofilm inhibition (at least 80%), P. aeruginosa; format: cell-based, Pseudomonas aeruginosa; settings: n = 4, BM2 minimal media, 18-24 hours, crystal violet
P. aeruginosa LESB58 = experiment: Murine model of abscess infections; format: in vivo, murine; Pseudomonas aeruginosa
[3] = tested on: Klebsiella pneumonia KPLN649; experiment: Biofilm inhibition (at least 80%), K. pneumonia; format: cell-based; settings: K. pneumoniae KPLN649; n = 3; BM2 minimal media; 48 hours; crystal violet
MRSA USA300 [4] = experiment: Murine sinusitis model, MRSA; format: in vivo, mouse; methicillin resistant Staphylococcus aureus
From the text: FIGS. 15A-15I show peptides AB101-D, AB102-D and AB103-D compared to DJK5 in a murine sinusitis model of bacterial infections. MRSA USA300, nasal cavity (FIG. 15A) P. aeruginosa LESB58 (FIG. 15B and FIG. 15C, nasal cavity); MRSA USA300, lung tissue (FIG. 15D) P. aeruginosa LESB58 (FIG. 15E and FIG. 15F, lung tissue); and MRSA USA300, weight change (FIG. 15G) P. aeruginosa LESB58 (FIG. 15H and FIG. 15I, weight change).
A murine sinusitis model of bacterial infections in the nasal cavity of mice [Alford et al. (2021). Murine model of sinusitis infection for screening antimicrobial and immunomodulatory therapies. Frontiers in Cellular and Infection Microbiology., 11, 621081] was used to determine the efficacy of D-amino acid peptides AB101-D, AB102-D and AB103-D compared to DJK5. […]. Treatment was applied either as dropwise administration of a peptide solution (20 μl) to the infected naris of a mouse (FIGS. 15A, 15B, 15D, 15E, 15G, 15H) or peptide was delivered using a Respimat® inhaler device (FIGS. 15C, 15F, 15I). Mice were monitored and weighed once daily for up to three days then euthanized prior to collection of nasal lavage fluid and lung tissue for bacterial enumeration. The limit of detection is shown by the dotted line at log CFU=2. […] Accordingly, the results indicated enhanced efficacy of D-amino acid peptides AB101-D, AB102-D and AB103-D compared to DJK5 in this murine model.

[5] = tested on: Enterococcus faecium #2-1; experiment: Biofilm inhibition (at least 80%), E. faecium; format: cell-based; settings: E. faecium #2-1; n = 3; TSB + 1% glucose; 48 hours; crystal violet
PAO1 preformed biofilms = settings: for IC50: read-out: Biofilm Eradication IC50, PAO1, 24-hr preformed biofilms treated overnight, TTC
MRSA preformed biofilms = experiment: Biofilm eradication of 24-hr preformed biofilms (TTC metabolic dye), MRSA; format: cell-based, methicillin resistant Staphylococcus aureus; settings: 24-hr preformed biofilms treated overnight
MRSA USA300 [6] = experiment: Biofilm inhibition (at least 80%), MRSA; format: cell-based, methicillin resistant Staphylococcus aureus; settings: n = 4, 10% TSB + 0.1% glucose, 18-24 hours, crystal violet
Streptococcus salivarius = experiment: MIC (broth microdilution) of peptides, S. salivarius; format: cell-based; settings: mode of three biological replicates
Method: as §1, §2

E. coli O157:H7 = experiment: Biofilm inhibition (at least 80%), E. coli; format: cell-based, Escherichia coli; settings: n = 3, BM2 minimal media, 18-24 hours, crystal violet
[7] = tested on: Staphylococcus haemolyticus; experiment: MIC (broth microdilution) of peptides, S. haemolyticus; format: cell-based; settings: mode of three biological replicates
Method: as §1, §2

[8] = tested on: Staphylococcus epidermidis; experiment: MIC (broth microdilution) of peptides, S. epidermidis; format: cell-based; settings: mode of three biological replicates
Method: as §1, §2

Row | SMILES | minimum inhibitory concentration of peptide that inhibited at least 90% of biofilm growth (MBIC90) (MRSA USA300 biofilms) [µM] | IC50 (MRSA USA300 biofilms) [µM] | MIC (MRSA USA 300) [µg/mL] | MIC (P. aeruginosa PAO1 [1]) [µg/mL] | Peptide/Antibiotic Concentration where at least 80% of biofilm growth was inhibited (P. aeruginosa PAO1 [2]) [µg/mL] | Abscess size (P. aeruginosa LESB58) | Decrease in abscess formation (P. aeruginosa LESB58) [%] | Peptide/Antibiotic Concentration where at least 80% of biofilm growth was inhibited [3] [µg/mL] | Bacteria in nasal cavity and lungs (MRSA USA300 [4]; MRSA USA300, 0.1 mg dose, compared to DJK5) | Broad spectrum antibiofilm activity, more active than DJK5 (ESKAPEE Pathogens) | Peptide/Antibiotic Concentration where at least 80% of biofilm growth was inhibited [5] [µg/mL] | Enhanced antibiofilm eradication activity (PAO1 preformed biofilms; P. aeruginosa, compared with DJK5) [fold] | IC50 (PAO1 preformed biofilms) [µM] | IC50 (MRSA preformed biofilms) [µM] | Peptide/Antibiotic Concentration where at least 80% of biofilm growth was inhibited (MRSA USA300 [6]) [µg/mL] | MIC (Streptococcus salivarius) [µg/mL] | Peptide/Antibiotic Concentration where at least 80% of biofilm growth was inhibited (E. coli O157:H7) [µg/mL] | MIC [7] [µg/mL] | MIC [8] [µg/mL] | Weight loss (MRSA USA300 [4]; MRSA USA300 infected mice)
1 | CC[C@@H](C)[C@@H](NC(=O)[C@@H](C)NC(=O)[C@@H](CCCNC(=N)N)NC(=O)[C@@H](Cc1c[nH]c2ccccc12)NC(=O)[C@@H](CCC(N)=O)NC(=O)[C@H](NC(=O)[C@@H](CCCNC(=N)N)NC(=O)[C@H](NC(=O)[C@H](NC(=O)[C@@H](CCCNC(=N)N)NC(=O)[C@H](NC(=O)[C@H](N)CCCNC(=N)N)C(C)C)C(C)C)[C@H](C)CC)C(C)C)C(N)=O [AB103-D, rvrvirvqwrai-NH2] (H-[dR][dV][dR][dV][dI][dR][dV][dQ][dW][dR][dA][dI]-NH2) | 1 | 0.34 | 0.8 (≈ 0.516 µM) | 2 (≈ 1.29 µM) | 2 | reduced abscess size | 77 | 2 | reduced the amount of bacteria in the nasal cavity and lungs of mice much more than DJK5 treatment | 2-4 fold | 1 | > 2 | 1.7 | 2.2 | 0.5 | 0.8 (≈ 0.516 µM) | 1 | 0.8 (≈ 0.516 µM) | 0.8 (≈ 0.516 µM) | –
2 | CC[C@@H](C)[C@@H](NC(=O)[C@@H](C)NC(=O)[C@@H](CCCNC(=N)N)NC(=O)[C@@H](Cc1c[nH]c2ccccc12)NC(=O)[C@@H](CCC(N)=O)NC(=O)[C@H](N)C(C)C)C(=O)N[C@H](CCCNC(=N)N)C(=O)N[C@@H](C(=O)N[C@H](CCCNC(=N)N)C(=O)N[C@@H](C(=O)N[C@@H](C(=O)N[C@H](CCCNC(=N)N)C(N)=O)[C@H](C)CC)C(C)C)C(C)C [DJK5, vqwrairvrvir-NH2] (H-[dV][dQ][dW][dR][dA][dI][dR][dV][dR][dV][dI][dR]-NH2) | 0.5 | 0.35 | 0.8 (≈ 0.516 µM) | 6 (≈ 3.87 µM) | 8 | – | 54 | 8 | – | – | 1 | – | 3.8 | 1.6 | 1 | 0.8 (≈ 0.516 µM) | 1 | 0.8 (≈ 0.516 µM) | 0.8 (≈ 0.516 µM) | did not prevent weight loss
